The values below come from PubChem BioAssay (NCI).

The structures appear in SMILES notation.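 Grown in 96-well plates, cells were treated for 48 hours with each compound at five concentrations. Insufficient inhibition: endpoint recorded as highest concentration tested. Definition used: TGI = concentration required for complete inhibition of growth.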

Some test systems named below: LXFL 529 NSCLC; SNB-78 CNS; KM20L2 colon; M19-MEL melanoma; HOP-62 NSCLC; HOP-18 NSCLC; DLD-1 colon; KM12 colon; DMS 114 small cell lung; RXF-631 renal; XF 498 CNS; 786-0 renal; DMS 273 small cell lung; UACC-62 melanoma; RXF 393 renal.
Holding throughout (test): NCI-60 cell line screen, 48 h

In the case of `CN(C)CCC[N+]1=Nc2cccc3cccc(c23)N1`, the TGI in the test with LXFL 529 NSCLC, with SNB-78 CNS, in the test on KM20L2 colon, in the test on M19-MEL melanoma, in the test with HOP-62 NSCLC and in the test with HOP-18 NSCLC was > 100 µM each time. Moreover, the TGI with DLD-1 colon is 35.8 µM; in the test with KM12 colon, > 100 µM; in the test with DMS 114 small cell lung, > 100 µM; in the test on RXF-631 renal, > 100 µM; in the test with XF 498 CNS, > 100 µM; with 786-0 renal, > 100 µM. In addition, the results for the TGI with DMS 273 small cell lung and with UACC-62 melanoma were 59.5 µM and > 100 µM, respectively.
With `COC(=O)C(CCC1(C)OCCO1)=[N+]=[N-]`, the TGI in the test with LXFL 529 NSCLC, in the test on SNB-78 CNS, with KM20L2 colon, in the test on HOP-62 NSCLC, with HOP-18 NSCLC and in the test on DLD-1 colon was > 100 µM throughout. In addition, the TGI in the test with KM12 colon, with DMS 114 small cell lung, with RXF-631 renal, with XF 498 CNS, in the test with 786-0 renal and with RXF 393 renal was > 100 µM in each case. Moreover, the TGI in the test on DMS 273 small cell lung is > 100 µM.
Turning to `Cc1ccc(NC(=O)C2C3CCC(O3)C2C(=O)O)cc1` (configuration not stated), the TGI was > 74.6 µM in the test on LXFL 529 NSCLC; > 100 µM with SNB-78 CNS; > 57.8 µM in the test with KM20L2 colon; > 100 µM in the test on M19-MEL melanoma; > 100 µM in the test on HOP-62 NSCLC; > 100 µM in the test on HOP-18 NSCLC. The TGI in the test on DLD-1 colon was 96.9 µM; with KM12 colon, > 100 µM; with DMS 114 small cell lung, > 59.8 µM; with RXF-631 renal, > 100 µM; in the test with XF 498 CNS, > 77.8 µM; in the test on 786-0 renal it was > 56.1 µM. Besides, the TGI in the test on RXF 393 renal is 48.6 µM; in the test on DMS 273 small cell lung it was > 100 µM; in the test on UACC-62 melanoma, > 100 µM.
